“Also recorded” adds a separate entry of the source. Where two headings read alike, the source gives them in different places.
Legend:
[1] = test system: SARS-CoV-2 USA-WA1/2020 in human iPSC-derived lung organoids
SARS-CoV-2 M^pro [2] = molecular target: T1, SARS-CoV-2 M^pro (Severe acute respiratory syndrome coronavirus 2, UniProt P0DTD1); assay: Preincubation dilution experiment; format: biochemical
[3] = test system: SARS-CoV-2 (USA_WA01/2020) in Vero E6 cells; assay: Antiviral assay in SARS-CoV-2-infected Vero E6 cells; format: cell-based; settings: read-out: Antiviral EC50, MOI 0.01, 72 h, cell proliferation
SARS-CoV-2 M^pro [4] = molecular target: T1, SARS-CoV-2 M^pro; assay: Steady-state enzyme kinetics, inhibition mechanism; format: biochemical
[5] = 10 μM preincubation 30 min, 10× dilution

Compound: O=c1c2ccccc2[se]n1-c1cccc(C(F)(F)F)c1 [Compound E24, 2-(3-(Trifluoromethyl)phenyl)benzo[d][1,2]selenazol-3(2H)-one]
- reduction of viral RNA levels, intracellular fraction [1]: ~50%
- reduction of viral RNA levels, supernatant fraction [1]: ~50%
- toxicity toward the organoids ([1]; 5 μM, 72 h): no observable toxicity

Compound: O=c1c2ccccc2[se]n1-c1cccc(Cl)c1 [Compound E19, 2-(3-Chlorophenyl)benzo[d][1,2]selenazol-3(2H)-one]
- type of inhibition from preincubation dilution (SARS-CoV-2 M^pro [2]; [5]): rapidly reversible inhibitor

Compound: O=c1c2ccccc2[se]n1-c1cc(Cl)cc(Cl)c1 [Compound E20, 2-(3,5-Dichlorophenyl)benzo[d][1,2]selenazol-3(2H)-one]
- type of inhibition from preincubation dilution (SARS-CoV-2 M^pro [2]; [5]): reversible covalent inhibitor

Compound: N#Cc1cccc(-n2[se]c3ccccc3c2=O)c1 [Compound E25, 3-(3-Oxobenzo[d][1,2]selenazol-2(3H)-yl)benzonitrile]
- type of inhibition from preincubation dilution (SARS-CoV-2 M^pro [2]; [5]): some recovery of the enzymatic activity but not a complete recovery; also recorded: reversible covalent inhibitor

Compound: 2-(4-Chlorophenyl)benzo[d][1,2]selenazol-3(2H)-one [Compound E15]
- EC50 [3]: 11.2 ± 1.3 µM

Compound: O=c1c2ccccc2[se]n1-c1ccccc1 [Compound E01, 2-Phenylbenzo[d][1,2]selenazol-3(2H)-one, reference compound]
- mechanism of inhibition (SARS-CoV-2 M^pro [4]): likely competitive inhibitors
- type of inhibition from preincubation dilution (SARS-CoV-2 M^pro [2]): reversible covalent inhibitor

Compound: COc1ccc(Cn2[se]c3ccccc3c2=O)c(OC)c1 [Compound E07, 2-(2,4-Dimethoxybenzyl)benzo[d][1,2]selenazol-3(2H)-one]
- type of inhibition from preincubation dilution (SARS-CoV-2 M^pro [2]; [5]): reversible covalent inhibitor

Compound: O=c1c2ccccc2[se]n1-c1ccc(C(F)(F)F)cc1 [Compound E04, 2-(4-(Trifluoromethyl)phenyl)benzo[d][1,2]selenazol-3(2H)-one]
- mechanism of inhibition (SARS-CoV-2 M^pro [4]; 0.5-10 μM inhibitor, 1.5-30 μM substrate, global fit to mixed model): likely competitive inhibitors
- type of inhibition from preincubation dilution (SARS-CoV-2 M^pro [2]; [5]): rapidly reversible inhibitor

Source: publication PMC8491550 (Journal of Medicinal Chemistry, 2021)
